PMC5218480 (PLoS ONE, 2017)

Tested on: MV-4-11 cells
Experiment: Gene expression microarray analysis (Affymetrix PrimeView) and GSEA
Type: cell-based, human
Parameters: RFU PODN (11730768_x_at) / Fold change /veh PODN (11730768_x_at) / RFU LINC00158 (11744669_a_at) / Fold change /veh LINC00158 (11744669_a_at) / RFU DUSP10 (11751237_a_at) / Fold change /veh DUSP10 (11751237_a_at) / RFU ID3 (11757404_x_at) / Fold change /veh ID3 (11757404_x_at) / RFU PLEKHG5 (11737974_s_at) / Fold change /veh PLEKHG5 (11737974_s_at) / RFU LRRC4B (11730491_at) / Fold change /veh LRRC4B (11730491_at) / RFU GIMAP4 (11747438_a_at) / Fold change /veh GIMAP4 (11747438_a_at) / RFU KRT8 (11758183_x_at) / Fold change /veh KRT8 (11758183_x_at) / RFU CNN1 (11734310_a_at) / Fold change /veh CNN1 (11734310_a_at) / RFU VPS37D (11726825_at) / Fold change /veh VPS37D (11726825_at) / RFU C10orf10 (11716522_x_at) / Fold change /veh C10orf10 (11716522_x_at) / RFU KIR2DL2 /// KIR2DL4 /// KIR2DL5A /// KIR2DL5B /// KIR2DS1 /// KIR2DS2 /// KIR2DS3 /// KIR2DS4 /// KIR3DL3 /// KIR3DL3 /// KIR3DS1 (11738374_at) / Fold change /veh KIR2DL2 /// KIR2DL4 /// KIR2DL5A /// KIR2DL5B /// KIR2DS1 /// KIR2DS2 /// KIR2DS3 /// KIR2DS4 /// KIR3DL3 /// KIR3DL3 /// KIR3DS1 (11738374_at) / RFU C1QL1 (11718748_at) / Fold change /veh C1QL1 (11718748_at) / RFU TMPRSS4 (11747572_a_at) / Fold change /veh TMPRSS4 (11747572_a_at) / RFU HAMP (11756126_x_at) / Fold change /veh HAMP (11756126_x_at) / RFU RNFT2 (11725882_a_at) / Fold change /veh RNFT2 (11725882_a_at) / RFU NR4A2 (11747474_a_at) / Fold change /veh NR4A2 (11747474_a_at) / RFU ABCC12 (11746883_a_at) / Fold change /veh ABCC12 (11746883_a_at) / RFU TMEM136 (11760407_x_at) / Fold change /veh TMEM136 (11760407_x_at) / RFU CLDN22 /// WWC2 (11732394_at) / Fold change /veh CLDN22 /// WWC2 (11732394_at) / RFU HLA-DPB1 (11760878_x_at) / Fold change /veh HLA-DPB1 (11760878_x_at) / RFU SPINT1 (11716480_a_at) / Fold change /veh SPINT1 (11716480_a_at) / RFU GAP43 (11754022_s_at) / Fold change /veh GAP43 (11754022_s_at) / RFU A4GNT (11735810_at) / Fold change /veh A4GNT (11735810_at) / RFU PRB3 (11715151_x_at) / Fold change /veh PRB3 (11715151_x_at) / RFU TUBB4B (11761932_at) / Fold change /veh TUBB4B (11761932_at) / RFU CAPN14 (11732068_a_at) / Fold change /veh CAPN14 (11732068_a_at) / RFU TMCC2 (11721928_a_at) / Fold change /veh TMCC2 (11721928_a_at) / RFU IRGQ (11745062_a_at) / Fold change /veh IRGQ (11745062_a_at) / RFU FAM174B (11720279_a_at) / Fold change /veh FAM174B (11720279_a_at) / RFU TMPRSS4 (11748680_a_at) / Fold change /veh TMPRSS4 (11748680_a_at) / RFU FAM212B (11763350_a_at) / Fold change /veh FAM212B (11763350_a_at) / RFU PLEKHG5 (11743358_a_at) / Fold change /veh PLEKHG5 (11743358_a_at) / RFU ZSCAN30 (11745921_a_at) / Fold change /veh ZSCAN30 (11745921_a_at) / RFU CMKLR1 (11741424_a_at) / Fold change /veh CMKLR1 (11741424_a_at) / RFU LOC101060620 /// MAPK8IP1 (11723275_at) / Fold change /veh LOC101060620 /// MAPK8IP1 (11723275_at) / RFU SPTSSB (11747773_x_at) / Fold change /veh SPTSSB (11747773_x_at) / RFU PRSS12 (11739890_at) / Fold change /veh PRSS12 (11739890_at) / RFU BIN1 (11741810_x_at) / Fold change /veh BIN1 (11741810_x_at) / RFU WNT11 (11732464_a_at) / Fold change /veh WNT11 (11732464_a_at) / RFU C10orf10 (11716521_a_at) / Fold change /veh C10orf10 (11716521_a_at) / RFU C5orf56 (11738089_at) / Fold change /veh C5orf56 (11738089_at) / RFU CYB561 (11721691_x_at) / Fold change /veh CYB561 (11721691_x_at) / RFU ANKRD19P (11752326_a_at) / Fold change /veh ANKRD19P (11752326_a_at) / RFU OR2T12 /// OR2T33 /// OR2T8 (11738714_s_at) / Fold change /veh OR2T12 /// OR2T33 /// OR2T8 (11738714_s_at) / RFU VCAN (11748164_a_at) / Fold change /veh VCAN (11748164_a_at) / RFU JSRP1 (11732532_at) / Fold change /veh JSRP1 (11732532_at) / RFU KRTAP10-11 (11738290_x_at) / Fold change /veh KRTAP10-11 (11738290_x_at) / RFU MYO3A (11730013_a_at) / Fold change /veh MYO3A (11730013_a_at) / RFU EBF3 (11725865_a_at) / Fold change /veh EBF3 (11725865_a_at) / RFU CAMK2N1 (11719241_x_at) / Fold change /veh CAMK2N1 (11719241_x_at) / RFU C5orf56 (11738088_a_at) / Fold change /veh C5orf56 (11738088_a_at) / RFU OLFML3 (11715873_a_at) / Fold change /veh OLFML3 (11715873_a_at) / RFU LOC100653217 /// NTM (11731650_a_at) / Fold change /veh LOC100653217 /// NTM (11731650_a_at) / RFU MAPK11 (11762145_a_at) / Fold change /veh MAPK11 (11762145_a_at) / RFU FIZ1 (11724087_x_at) / Fold change /veh FIZ1 (11724087_x_at) / RFU OASL (11726364_x_at) / Fold change /veh OASL (11726364_x_at) / RFU SOX15 (11748057_x_at) / Fold change /veh SOX15 (11748057_x_at) / RFU CD79A (11719716_a_at) / Fold change /veh CD79A (11719716_a_at) / RFU HIST1H1D (11736915_at) / Fold change /veh HIST1H1D (11736915_at) / RFU CASKIN2 (11723855_a_at) / Fold change /veh CASKIN2 (11723855_a_at) / RFU LOC730098 (11760151_x_at) / Fold change /veh LOC730098 (11760151_x_at) / RFU OR4N2 (11742367_at) / Fold change /veh OR4N2 (11742367_at) / RFU PRRT2 (11749266_a_at) / Fold change /veh PRRT2 (11749266_a_at) / RFU SNX32 (11753110_a_at) / Fold change /veh SNX32 (11753110_a_at) / RFU CDHR5 (11726645_a_at) / Fold change /veh CDHR5 (11726645_a_at) / RFU RCAN1 (11760418_a_at) / Fold change /veh RCAN1 (11760418_a_at) / RFU FAM167A (11723789_a_at) / Fold change /veh FAM167A (11723789_a_at) / RFU FAM26E (11764081_at) / Fold change /veh FAM26E (11764081_at) / RFU ISYNA1 (11749810_s_at) / Fold change /veh ISYNA1 (11749810_s_at) / RFU ACY1 (11761880_at) / Fold change /veh ACY1 (11761880_at) / RFU 11764098_at / Fold change /veh 11764098_at / RFU SAMD14 (11745864_x_at) / Fold change /veh SAMD14 (11745864_x_at) / RFU NPB (11741838_a_at) / Fold change /veh NPB (11741838_a_at) / RFU TMPRSS6 (11731388_a_at) / Fold change /veh TMPRSS6 (11731388_a_at) / RFU KRTAP10-2 (11738614_at) / Fold change /veh KRTAP10-2 (11738614_at) / RFU ARHGAP8 /// PRR5-ARHGAP8 (11727945_x_at) / Fold change /veh ARHGAP8 /// PRR5-ARHGAP8 (11727945_x_at) / RFU KRTAP5-7 /// NADSYN1 (11734609_at) / Fold change /veh KRTAP5-7 /// NADSYN1 (11734609_at) / RFU RASL12 (11751679_a_at) / Fold change /veh RASL12 (11751679_a_at) / RFU CDKN2B (11736163_a_at) / Fold change /veh CDKN2B (11736163_a_at) / RFU PRF1 (11729649_at) / Fold change /veh PRF1 (11729649_at) / RFU, ZNF638 /// ZNF638-IT1 / Fold change vs veh, ZNF638 /// ZNF638-IT1 / RFU, PANK3 / Fold change vs veh, PANK3 / RFU, SH3YL1 / Fold change vs veh, SH3YL1 / RFU, ZEB2 / Fold change vs veh, ZEB2 / RFU, NRIP1 / Fold change vs veh, NRIP1 / RFU, PTTG1IP / Fold change vs veh, PTTG1IP / RFU, CAPN2 / Fold change vs veh, CAPN2 / RFU, MED14 / Fold change vs veh, MED14 / RFU, SNORA58 / Fold change vs veh, SNORA58 / RFU, C1orf63 / Fold change vs veh, C1orf63 / RFU, LRRFIP1 / Fold change vs veh, LRRFIP1 / RFU, NDUFAF7 / Fold change vs veh, NDUFAF7 / RFU, SLC12A2 / Fold change vs veh, SLC12A2 / RFU, IBTK / Fold change vs veh, IBTK / RFU, ESF1 / Fold change vs veh, ESF1 / Fold change vs veh, TMEM50B / RFU, TAOK1 / Fold change vs veh, TAOK1 / RFU, ACBD3 / Fold change vs veh, ACBD3 / RFU, TMA16 / Fold change vs veh, TMA16 / RFU, RWDD3 / Fold change vs veh, RWDD3 / RFU, BCAT1 / Fold change vs veh, BCAT1 / RFU, EDEM3 / Fold change vs veh, EDEM3 / RFU, TMEM33 / Fold change vs veh, TMEM33 / RFU, WDR75 / Fold change vs veh, WDR75 / RFU, AHCTF1 / Fold change vs veh, AHCTF1 / RFU, TFRC / Fold change vs veh, TFRC / RFU, ZDHHC17 / Fold change vs veh, ZDHHC17 / RFU, NOM1 / Fold change vs veh, NOM1 / RFU, ARL8B / Fold change vs veh, ARL8B / RFU, ZBTB11 / Fold change vs veh, ZBTB11 / RFU, TAMM41 / Fold change vs veh, TAMM41 / RFU, KIAA1704 /// LOC100996395 / Fold change vs veh, KIAA1704 /// LOC100996395 / RFU, ING1 / Fold change vs veh, ING1 / RFU, TRMT61B / Fold change vs veh, TRMT61B / RFU, FUBP3 / Fold change vs veh, FUBP3 / RFU, TP53 / Fold change vs veh, TP53 / RFU, TNKS2 / Fold change vs veh, TNKS2 / RFU, ZFP14 / Fold change vs veh, ZFP14 / RFU, ACTR2 / Fold change vs veh, ACTR2 / RFU, PPP3R1 / Fold change vs veh, PPP3R1 / RFU, PIK3R1 / Fold change vs veh, PIK3R1 / RFU, HNRNPA1 / Fold change vs veh, HNRNPA1 / RFU, RNF170 / Fold change vs veh, RNF170 / RFU, ZNF28 / Fold change vs veh, ZNF28 / RFU, RNGTT / Fold change vs veh, RNGTT / RFU, OGT / Fold change vs veh, OGT / RFU, BRD1 / Fold change vs veh, BRD1 / RFU, MARS / Fold change vs veh, MARS / RFU, ZNF655 / Fold change vs veh, ZNF655 / RFU, FAHD1 / Fold change vs veh, FAHD1 / RFU, BDP1 / Fold change vs veh, BDP1 / RFU, LRRCC1 / Fold change vs veh, LRRCC1 / RFU, ARID1A / Fold change vs veh, ARID1A / RFU, ZNF146 / Fold change vs veh, ZNF146 / RFU, ZNF330 / Fold change vs veh, ZNF330 / RFU, GPN3 / Fold change vs veh, GPN3 / RFU, C9orf123 / Fold change vs veh, C9orf123 / RFU, N4BP2L2 / Fold change vs veh, N4BP2L2 / RFU, ARFIP1 / Fold change vs veh, ARFIP1 / RFU, FAM179B / Fold change vs veh, FAM179B / RFU, BCL10 / Fold change vs veh, BCL10 / RFU, UHRF1BP1L / Fold change vs veh, UHRF1BP1L / RFU, BET1 / Fold change vs veh, BET1 / RFU, CNOT2 / Fold change vs veh, CNOT2 / RFU, ZNF268 / Fold change vs veh, ZNF268 / Fold change vs veh, ZNF507 / RFU, DGCR2 / Fold change vs veh, DGCR2 / RFU, WDSUB1 / Fold change vs veh, WDSUB1 / Fold change vs veh, HSP90B1 /// MIR3652 / RFU, ADSS / Fold change vs veh, ADSS / RFU, GK / Fold change vs veh, GK / RFU, ZNF148 / Fold change vs veh, ZNF148 / RFU, TAF9 / Fold change vs veh, TAF9 / RFU, SLC1A5 / Fold change vs veh, SLC1A5 / RFU, SLMO2 / Fold change vs veh, SLMO2 / RFU, ABCC4 / Fold change vs veh, ABCC4 / RFU, LOC101060439 /// RAP1B / Fold change vs veh, LOC101060439 /// RAP1B / RFU, RFX7 / Fold change vs veh, RFX7 / RFU, GTPBP10 / Fold change vs veh, GTPBP10 / RFU, CNEP1R1 / Fold change vs veh, CNEP1R1 / RFU, BIVM-ERCC5 /// ERCC5 / Fold change vs veh, BIVM-ERCC5 /// ERCC5 / RFU, ILF3 / Fold change vs veh, ILF3 / RFU 11762660_at / Fold change /veh 11762660_at / RFU VCAN (11757783_s_at) / Fold change /veh VCAN (11757783_s_at) / RFU DDX43 (11728927_at) / Fold change /veh DDX43 (11728927_at) / RFU KRT8 (11758188_x_at) / Fold change /veh KRT8 (11758188_x_at) / RFU NKD1 (11759106_at) / Fold change /veh NKD1 (11759106_at) / RFU SRD5A1 (11742802_a_at) / Fold change /veh SRD5A1 (11742802_a_at) / RFU TPSAB1 /// TPSB2 (11721975_s_at) / Fold change /veh TPSAB1 /// TPSB2 (11721975_s_at) / RFU GSTM3 (11746129_a_at) / Fold change /veh GSTM3 (11746129_a_at) / RFU IL23R (11737362_x_at) / Fold change /veh IL23R (11737362_x_at) / RFU TMEM51 (11727254_a_at) / Fold change /veh TMEM51 (11727254_a_at) / RFU PIWIL2 (11732686_x_at) / Fold change /veh PIWIL2 (11732686_x_at) / RFU ORM1 (11744905_x_at) / Fold change /veh ORM1 (11744905_x_at) / RFU CCDC152 (11743942_at) / Fold change /veh CCDC152 (11743942_at) / RFU ECM1 (11717891_a_at) / Fold change /veh ECM1 (11717891_a_at) / RFU IL23R (11748794_a_at) / Fold change /veh IL23R (11748794_a_at) / RFU TNFAIP8L3 (11732012_x_at) / Fold change /veh TNFAIP8L3 (11732012_x_at) / RFU MBOAT4 (11741988_at) / Fold change /veh MBOAT4 (11741988_at) / RFU 11764193_at / Fold change /veh 11764193_at / RFU TMEM53 (11763286_at) / Fold change /veh TMEM53 (11763286_at) / RFU MAGEB2 (11727129_at) / Fold change /veh MAGEB2 (11727129_at) / RFU TMEM200A (11744735_a_at) / Fold change /veh TMEM200A (11744735_a_at) / RFU CCDC152 (11751479_a_at) / Fold change /veh CCDC152 (11751479_a_at) / RFU FAM211A (11726209_a_at) / Fold change /veh FAM211A (11726209_a_at) / RFU RGS16 (11746705_a_at) / Fold change /veh RGS16 (11746705_a_at) / RFU VCAN (11755009_s_at) / Fold change /veh VCAN (11755009_s_at) / RFU RHOB (11743442_s_at) / Fold change /veh RHOB (11743442_s_at) / RFU RGS16 (11720943_a_at) / Fold change /veh RGS16 (11720943_a_at) / RFU RGS16 (11720944_at) / Fold change /veh RGS16 (11720944_at) / RFU, VPS4B / Fold change vs veh, VPS4B / RFU, CREB1 / Fold change vs veh, CREB1 / RFU, DNAJC13 / Fold change vs veh, DNAJC13 / RFU, GNAQ / Fold change vs veh, GNAQ / RFU, CDK5R1 / Fold change vs veh, CDK5R1 / RFU, ZRANB3 / Fold change vs veh, ZRANB3 / RFU, CUL4A / Fold change vs veh, CUL4A / RFU, CCNY / Fold change vs veh, CCNY / RFU, UFL1 / Fold change vs veh, UFL1 / RFU, COG3 / Fold change vs veh, COG3 / RFU, DIAPH2 / Fold change vs veh, DIAPH2 / RFU, SKA2 / Fold change vs veh, SKA2 / RFU, AFF3 / Fold change vs veh, AFF3 / RFU, LMF1 / Fold change vs veh, LMF1 / RFU, IPO11 / Fold change vs veh, IPO11 / RFU, DFFB / Fold change vs veh, DFFB / RFU, FOXP1 / Fold change vs veh, FOXP1 / RFU, CARD8 / Fold change vs veh, CARD8 / RFU, STRN3 / Fold change vs veh, STRN3 / RFU, ADK / Fold change vs veh, ADK / RFU, RASSF2 / Fold change vs veh, RASSF2 / RFU, WIPF1 / Fold change vs veh, WIPF1 / RFU, LARP1B / Fold change vs veh, LARP1B / RFU, RASA1 / Fold change vs veh, RASA1 / RFU, RB1 / Fold change vs veh, RB1 / RFU, PPFIA1 / Fold change vs veh, PPFIA1 / RFU, MAT2A / Fold change vs veh, MAT2A / RFU, CCT5 / Fold change vs veh, CCT5 / RFU, WDR92 / Fold change vs veh, WDR92 / RFU, CUX1 / Fold change vs veh, CUX1 / RFU, TTC7A / Fold change vs veh, TTC7A / RFU, TMEM135 / Fold change vs veh, TMEM135 / RFU, DEPTOR / Fold change vs veh, DEPTOR / RFU, CPM / Fold change vs veh, CPM / RFU, DNAJB6 / Fold change vs veh, DNAJB6 / RFU, CACNA2D3 / Fold change vs veh, CACNA2D3 / RFU, DTX4 / Fold change vs veh, DTX4 / RFU, TFCP2 / Fold change vs veh, TFCP2 / RFU, GMCL1 /// GMCL1P1 / Fold change vs veh, GMCL1 /// GMCL1P1 / RFU, AEBP2 / Fold change vs veh, AEBP2 / RFU, SNHG1 /// SNORD22 /// SNORD25 /// SNORD26 /// SNORD27 /// SNORD28 /// SNORD29 /// SNORD31 / Fold change vs veh, SNHG1 /// SNORD22 /// SNORD25 /// SNORD26 /// SNORD27 /// SNORD28 /// SNORD29 /// SNORD31 / Fold change (Aza/veh), C12orf56 (ProbeSet 11735607_a_at) / Fold change (ACY-1035/veh), C12orf56 (ProbeSet 11735607_a_at) / Fold change (Aza/veh), FGFR1OP (ProbeSet 11751329_s_at) / Fold change (ACY-1035/veh), FGFR1OP (ProbeSet 11751329_s_at) / Fold change (Aza/veh), VPS36 (ProbeSet 11739960_a_at) / Fold change (ACY-1035/veh), VPS36 (ProbeSet 11739960_a_at) / RFU SYPL1 (11715823_x_at) / Fold change /veh SYPL1 (11715823_x_at) / RFU IGFBP7 (11715501_s_at) / Fold change /veh IGFBP7 (11715501_s_at) / RFU REEP3 (11722064_at) / Fold change /veh REEP3 (11722064_at) / RFU IGLL1 (11728026_x_at) / Fold change /veh IGLL1 (11728026_x_at): dose or concentration left out as unconfirmed
Conditions: MV-4-11 cells, 48 hours

Nc1ccc(-c2cccs2)cc1NC(=O)c1ccc2c(c1)cc(C1CC1)n2CCN1CCOCC1 [ACY-1035]
RFU 11764193_at: 28.66 RFU
